Reference: PMC7571068, “Antiproliferative and Pro-Apoptotic Effect of Uvaol in Human Hepatocarcinoma HepG2 Cells by Affecting G0/G1 Cell Cycle Arrest, ROS Production and AKT/PI3K Signaling Pathway” (Molecules, 2020)
In brackets after ≈: the same amount, converted by molar mass.

Key:
MDA-MB-231 line = tested on: MDA-MB-231 line; design: method as in PMID 25412049; conditions: cited from earlier work
HepG2 cells [1] = assay: MTT cytotoxicity assay; type: cell-based, human; conditions: for IC20 / IC50 / IC80: Homo sapiens, mean ± SEM (n = 9)
Protocol: MTT assay was performed as described by Pérez-Jiménez et al.. Briefly, samples containing 200 µL cell suspension (1 × 10^4 cells/well) were cultured in 96 well plates, in triplicate of three populations of the both cell lines. Subsequent to adherence of the cells within 12 h of incubation, Uvaol was added to the wells at a concentration between 0–140 μg/mL and maintained during 24, 48 and 72 h. MTT was dissolved in the medium and added to the wells at a final concentration of 0.5 mg/mL. Following 2 h of incubation, the generated formazan was dissolved in DMSO. Absorbance was measured at 570 nm in a multiplate reader (Bio-tek®, Winooski, VT, USA). The concentrations that caused 20%, 50% and 80% of inhibition of cell viability (IC20, IC50 and IC80) were calculated following the formula: % […] = (A0 − AT)/A0·100, where A0 is the control absorbance (100% of cell viability) and AT is de absorbance of the incubated cells with the different concentrations of uvaol. OriginPro 8 (OriginLab Corporation, Northampton, MA, USA) was used to performance a dose-response analysis by the following formula: y=A1+ A2− A1/1+10^(Log x0−x)p
In which Logx0 is the center of the curve, p the slope, A1 the lower asymptote and A2 the upper asymptote in the adjustment model described.

WRL68 cells = assay: Wound healing (scratch) assay; type: cell-based, human; conditions: WRL68, IC50 concentration, 0-42 h
Protocol: (§1) The wound healing or scratch assay was used to assess the migration capacity of the WRL68 and HepG2 cell lines. With this objective, 3 × 10^5 cells were seeded per well in a 6-well plate in triplicate for each cell line. When the populations reached a confluence of 80–90%, a sterile pipette tip was used to disrupt in a straight line (make a wound) the layer of cells attached to the culture surface. Subsequently, it was washed with PBS to prevent the cells that had been lifted from being able to rejoin. […] Quantification of wound healing was performed by using the MRI-Wound Healing Tool for ImageJ software (ImageJ 1.53a version).

HepG2 cells [2] = assay: Wound healing (scratch) assay; type: cell-based, human; conditions: HepG2, IC50 concentration, 0-42 h
Protocol: as §1

[3] = tested on: p53, c-Myc, Bcl-2, SOD, HSP-60 and Bax proteins in WRL68 cells; assay: Western blot of protein expression; type: cell-based, human; conditions: WRL68, IC50, 24 h, normalized to actin
Protocol: (§2) Triplicates of three different populations of each cell line, WRL68 and HepG2, were seeded in 6-well plates with a density of 2.5 × 10^5 cells per well. […] For protein extraction, each sample was resuspended in 20 μL of RIPA buffer (150 mM NaCl, 1% Igepal, 0.5% deoxycholic acid, 0.1% SDS, 50 mM Tris HCl pH 7.5, 0.2 M PMSF, […] and Thermo Scientific® PierceTM inhibitor cocktail, Waltham, MA, USA), and held on ice for 15 min. They were centrifuged at 15,000× g for 10 min at 4 °C, the supernatant was collected and stored at −80 °C for further analysis. The quantification of the protein concentration was carried out through the Bradford method. The methodology used for Western blot analysis is described by Mokhtari et al.. Brie fly, the initial separation of the extracts was performed by a 12% polyacrylamide gel electrophoresis under denaturing conditions (SDS-PAGE). A standardized load of 30 μg of protein per well was used after denaturing the samples at 95 °C for 5 min and adding the loading buffer (0.25 mM Tris-HCl pH 6.8, 10% SDS, 1 M DTT and glycerol). The proteins were transferred, by the semi-dry transfer method, (60 mA per gel, 1 h) using the TransBlot Turbo system (BioRad®, Berkeley, CA, USA), to a PVDF membrane. The membranes were blocked with blocking buffer (TBS, 0.1% Tween-20 and 3% skimmed milk) for 1 h at room temperature, incubating with the specific primary antibodies against the proteins studied at 4 °C overnight. The primary antibodies (from Santa Cruz Biotechnology®, Dallas, TX, USA) were diluted in blocking buffer. The membranes were washed with TBS-T (TBS, 0.1% Tween-20) for 5 min three times under stirring, and incubated with the corresponding secondary antibody (from Sigma®, St. Louis, MO, USA) (Table 1) for 1 h at room temperature, repeating the previous washing process later. These secondary antibodies have the enzyme horseradish peroxidase (HRP) coupled, which allows chemiluminescence to be detected in the presence of the protein band due to its ability to oxidize the luminol solution (ECL-plus Western-blot detection system, GE Healthcare, Chicago, IL, USA). The reaction produced was captured inside a ChemiDoc Imaging System (Bio-Rad®, Berkely, CA, USA). The program used to analyze the images obtained was Image Lab Software (Bio-Rad®, for PC 6.1 version). The expression of each protein was normalized referring to actin levels and were represented based on the results obtained for the control situation (WRL68 line without treatment) as percentage of expression (%). The expression obtained in each protein was analyzed through the mentioned program in triplicate.

[4] = tested on: p53, c-Myc, Bcl-2, SOD, HSP-60 and Bax proteins in HepG2 cells; assay: Western blot of protein expression; type: cell-based, human; conditions: HepG2, IC50, 24 h, normalized to actin
Protocol: as §2

## C[C@H]1[C@H](C)CC[C@]2(CO)CC[C@]3(C)C(=CC[C@@H]4[C@@]5(C)CC[C@H](O)C(C)(C)[C@@H]5CC[C@]43C)[C@H]12 [uvaol, urs-12-ene-3,28-diol]
MDA-MB-231 line
  changes in cell cycle progression: did not produce changes in the progression of the cycle
HepG2 cells [1]; 24 h IC50 WRL68 vs HepG2
  IC50 in control cells (WRL68) relative to tumor cells (HepG2): more than twice
HepG2 cells [1]; HepG2, 24 h exposure
  IC20: 8.2 ± 1.8 µg/mL (≈ 18.5 µM)
  IC50: 25.2 µg/mL (≈ 56.9 µM)
HepG2 cells [1]; HepG2, 48 h exposure
  IC20: 6.4 ± 0.4 µg/mL (≈ 14.5 µM)
  IC50: 20 ± 0.3 µg/mL (≈ 45.2 µM)
  IC80: 61.7 ± 5.3 µg/mL (≈ 139 µM)
HepG2 cells [1]; HepG2, 72 h exposure
  IC20: 4 ± 0.2 µg/mL (≈ 9.03 µM)
  IC50: 14.1 ± 1 µg/mL (≈ 31.8 µM)
  IC80: 39.2 ± 2.4 µg/mL (≈ 88.5 µM)
WRL68 cells
  wound closure (cell migration): wound healing was maintained during more hours than the control group
HepG2 cells [2]
  wound closure (cell migration): the wound remains until the end of the trial
[3]
  Bax expression vs control: did not produce changes
  Bcl-2 expression vs control: did not produce changes
  HSP-60 expression vs control: increased in both lines
  SOD expression vs control: increased
  c-Myc expression vs control: increase
  p53 expression vs control: increased
[4]
  Bax expression vs control: increased
  Bcl-2 expression vs control: decreased
  HSP-60 expression vs control: increased in both lines
  SOD expression vs control: remained unchanged
  c-Myc expression vs control: maintained
  p53 expression vs control: remained unchanged
